Results on 37 test systems are retold here after the supplement of paper PMC11962398.

Bounds are passed on as bounds.

Compound in assay [1]: T1, C[C@H]1CNCCN1c1nccc(-c2noc3c2CCC[C@@]32CCCc3sc(N)c(C#N)c32)n1 [BI-2493]
The following applies: 5 days. On the procedure:
(§1)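 PRISM pooled barcoded cancer cell line viability screen (Broad Institute) with BI-2493 at 8 doses in threefold dilutions from 0.00457 to 10 µmol/L, 5-day treatment; curves fitted per cell line. IC50 is undefined (placeholder) for resistant lines. AUC is capped at 1, and sensitivity is reported as 1 − AUC.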

Compound in assay [2]: T1, BI-2493
The assay can be described thus: 1 - AUC of viability dose-response curve (sensitivity) (fraction); higher = more sensitive. To be noted: 5 days. Here is the method:
as §1

Turning to 8MGBA_CENTRAL_NERVOUS_SYSTEM, in the assay with BI-2493 [1], the “IC50 of cell viability” value came to 6.11 µM. Moreover, the “1 - AUC of viability dose-response curve” value in the assay with BI-2493 [2] was 0.0867.
For the test system 22RV1_PROSTATE, the “IC50 of cell viability” value in the assay with BI-2493 [1] was determined as 5.65 µM. For the same test system, the “1 - AUC of viability dose-response curve” value in the assay with BI-2493 [2] worked out at 0.111.
For 42MGBA_CENTRAL_NERVOUS_SYSTEM, in that order: greater than 10 µM and 0.073.
The matching figures for 93T449_SOFT_TISSUE: 9.31 µM and 0.0121.
The matching figures for 94T778_SOFT_TISSUE: 5.6 µM and 0.112.
Consider 143B_BONE, for which the “IC50 of cell viability” value with BI-2493 [1] is 8.98 µM. Also, the “1 - AUC of viability dose-response curve” value with BI-2493 [2] was found to be 0.0198.
Take 253JBV_URINARY_TRACT: the “IC50 of cell viability” value in the assay with BI-2493 [1] was 6.75 µM. In addition, the “1 - AUC of viability dose-response curve” value with BI-2493 [2] came to 0.0713.
For 253J_URINARY_TRACT, in that order: 4.76 µM and 0.0834.
For 639V_URINARY_TRACT, in that order: greater than 10 µM and 0.116.
For 647V_URINARY_TRACT, in that order: 7.05 µM and 0.0938.
Regarding 697_HAEMATOPOIETIC_AND_LYMPHOID_TISSUE, in the assay with BI-2493 [1], the “IC50 of cell viability” value is 8.3 µM. Further, in the assay with BI-2493 [2], the “1 - AUC of viability dose-response curve” value amounted to 0.0309.
For the test system 769P_KIDNEY, in the assay with BI-2493 [1], the “IC50 of cell viability” value was 6.88 µM. Also, the “1 - AUC of viability dose-response curve” value with BI-2493 [2] was 0.0662.
The matching figures for 786O_KIDNEY: 2.69 µM and 0.241.
Consider 921_UVEA, for which the “IC50 of cell viability” value with BI-2493 [1] came out at 4.34 µM. Besides, in the assay with BI-2493 [2], the “1 - AUC of viability dose-response curve” value stood at 0.13.
On to 1618K_TESTIS, for which the “IC50 of cell viability” value with BI-2493 [1] turned out to be 2.47 µM. In the assay with BI-2493 [2], the “1 - AUC of viability dose-response curve” value worked out at 0.206.
The matching figures for 1777NRPMET_TESTIS: 9.43 µM and 0.0116.
The matching figures for 5637_URINARY_TRACT: 5.2 µM and 0.225.
The matching figures for 8305C_THYROID: 9.71 µM and 0.00549.
Regarding 8505C_THYROID, the “IC50 of cell viability” value with BI-2493 [1] worked out at 9.69 µM. The “1 - AUC of viability dose-response curve” value with BI-2493 [2] was 0.00728.
With 9505BIK_PANCREAS, the “IC50 of cell viability” value with BI-2493 [1] was found to be 1.57 µM. Also, the “1 - AUC of viability dose-response curve” value in the assay with BI-2493 [2] came to 0.321.
For 2313287_STOMACH, in that order: 1.34 µM and 0.233.
The matching figures for “A3KAW_HAEMATOPOIETIC_AND_LYMPHOID_TISSUE”: 3.54 µM and 0.191.
For A101D_SKIN, in that order: 8.09 µM and 0.0656.
Regarding A172_CENTRAL_NERVOUS_SYSTEM, the “IC50 of cell viability” value with BI-2493 [1] is 4.33 µM. The “1 - AUC of viability dose-response curve” value with BI-2493 [2] worked out at 0.178.
Take A204_SOFT_TISSUE: the “IC50 of cell viability” value with BI-2493 [1] is 4.24 µM. In addition, in the assay with BI-2493 [2], the “1 - AUC of viability dose-response curve” value is 0.163.
The matching figures for A253_SALIVARY_GLAND: 4.12 µM and 0.197.
For A375_SKIN, in the assay with BI-2493 [1], the “IC50 of cell viability” value is 9.23 µM. The “1 - AUC of viability dose-response curve” value with BI-2493 [2] was 0.016.
For the test system A388_SKIN, the “IC50 of cell viability” value with BI-2493 [1] is greater than 10 µM. The “1 - AUC of viability dose-response curve” value with BI-2493 [2] is 0.0151.
The matching figures for A427_LUNG: 0.735 µM and 0.349.
Turning to A498_KIDNEY, the “IC50 of cell viability” value with BI-2493 [1] was 5.88 µM. In the assay with BI-2493 [2], the “1 - AUC of viability dose-response curve” value was found to be 0.113.
The matching figures for A549_LUNG: 2.17 µM and 0.207.
The matching figures for A673_BONE: 9.04 µM and 0.0226.
In the case of A704_KIDNEY, in the assay with BI-2493 [1], the “IC50 of cell viability” value is 9.08 µM. Moreover, in the assay with BI-2493 [2], the “1 - AUC of viability dose-response curve” value worked out at 0.0519.
The matching figures for A1207_CENTRAL_NERVOUS_SYSTEM: 7.21 µM and 0.179.
For A2058_SKIN, in that order: 5.91 µM and 0.0892.
For A2780_OVARY, in the assay with BI-2493 [1], the “IC50 of cell viability” value was determined as 5.15 µM. Moreover, the “1 - AUC of viability dose-response curve” value in the assay with BI-2493 [2] came out at 0.103.
The matching figures for ABC1_LUNG: 7.12 µM and 0.0666.
